Here are results for four compounds from US20060058358A1, “Pharmaceutical compositions for the treatment of hyper-proliferative disorders” (priority 2004, published 2006).

The nature of series [1]: Solubility of the active in the dissolution medium. The format is physicochemical. The following applies: acetate buffer pH 4.5 USP + 0.1% sodium lauryl sulfate, 37°C. As for the experimental part: Drug dissolution of the new solid dispersion formulations of Example 6 and 7 was studied using the paddle apparatus “Apparatus 2” of the USP 28-NF 23 (The United States Pharmacopoeia USP 28 2005) at a temperature of 37±0.5° C. and a paddle speed of 75 rpm. 900 mL of acetate buffer pH 4.5 USP with the addition of 0.1% (m/V) sodium lauryl sulfate as surfactant was used as dissolution medium. An amount of solid dispersion equivalent to 50 mg of the compound of Formula I as base was inserted in each vessel. During the dissolution test samples were drawn through a filter and the dissolved amount of drug substances was determined by UV spectrometry. The determined amount of active was calculated as % (m/m) of total dose (50mg).
Due to the low solubility of the active only about […] of the 50 mg dose are dissolved. The solid dispersions, however, show fast and almost complete dissolution of the active. […] The solid new pharmaceutical compositions of Example 6 and 7, which contain the active in substantially amorphous form, show clear supersaturation compared to the physical mixture of the active and PVP, and no significant recrystallisation is observed for at least 1 hour. […]

The test system of another series is raf. The experiment in a line: Inhibition of raf kinase. To be noted: statement in words, no data. The format is biochemical.
Series [2] can be described thus: Comparative oral bioavailability in the rat (Example 19). Type of series: in vivo, male Wistar rats. To be noted: male, Wistar, plasma, 5 mg/kg, oral gavage; for bioavailability: relative to iv bolus 2 mg/kg. On the procedure:
A single dose of the compounds of Examples 1, 2, 3, 4, and 5 was administered to each of three fasted male Wistar rats (220-250 g; 6-8 weeks old) orally. Compounds of Examples 1-4 were administered by oral gavage in the formulation described in Table 1. The solid dispersion of Example 5 (1.25 mg drug substance in 5 mg PVP-25) was administered in size 9 capsules. One capsule was administered per rat. Approximately 0.4 mL of whole blood was collected via an indwelling jugular catheter at: 0.25, 0.5, 1, 2, 4, 7, 24, and 48 h post-dose. The blood samples were centrifuged (approx. 5 min.) in order to obtain plasma which was then transferred to the appropriately labeled vials and stored frozen (−20° C.) until analysis for parent drug.
Plasma samples were analyzed via LC/MS/MS for parent drug concentrations and pharmacokinetic parameters were calculated using Watson LIMS.
The dose of 5 mg/kg of the pharmaceutical composition of Example 5 means 5 mg of drug substance (compound of Example 1) per kg of body weight. The relative bioavailabilities in the rat are calculated from the data of an intravenous bolus dose of 2 mg/kg in the same strain of rats, using a solution of the active in a Cremophor RH40:ethanol:water (12.5:12.5:75) vehicle. The plasma exposure in the exposure arm of the suspension in 0.5% tylose solution (9.9% F) reflects a crystalline, micronized drug substance with the following characteristics: 208° C. (onset), 211° C. (peak), ΔH=91.4 J/g.

The subject of a further series is PDGFR. The experiment in a line: Inhibition of PDGFR kinase. The format is biochemical. To be noted: statement in words, no data.
A further series concerns p38. Put plainly: Inhibition of p38 kinase. Type of series: biochemical. The following applies: statement in words, no data.
In another series the target is VEGFR-2 (Homo sapiens, UniProt P35968). Put plainly: Inhibition of VEGFR-2 kinase. The following applies: statement in words, no data. The format is biochemical.
Sequence of VEGFR-2 (P35968 20-1356, species assumed): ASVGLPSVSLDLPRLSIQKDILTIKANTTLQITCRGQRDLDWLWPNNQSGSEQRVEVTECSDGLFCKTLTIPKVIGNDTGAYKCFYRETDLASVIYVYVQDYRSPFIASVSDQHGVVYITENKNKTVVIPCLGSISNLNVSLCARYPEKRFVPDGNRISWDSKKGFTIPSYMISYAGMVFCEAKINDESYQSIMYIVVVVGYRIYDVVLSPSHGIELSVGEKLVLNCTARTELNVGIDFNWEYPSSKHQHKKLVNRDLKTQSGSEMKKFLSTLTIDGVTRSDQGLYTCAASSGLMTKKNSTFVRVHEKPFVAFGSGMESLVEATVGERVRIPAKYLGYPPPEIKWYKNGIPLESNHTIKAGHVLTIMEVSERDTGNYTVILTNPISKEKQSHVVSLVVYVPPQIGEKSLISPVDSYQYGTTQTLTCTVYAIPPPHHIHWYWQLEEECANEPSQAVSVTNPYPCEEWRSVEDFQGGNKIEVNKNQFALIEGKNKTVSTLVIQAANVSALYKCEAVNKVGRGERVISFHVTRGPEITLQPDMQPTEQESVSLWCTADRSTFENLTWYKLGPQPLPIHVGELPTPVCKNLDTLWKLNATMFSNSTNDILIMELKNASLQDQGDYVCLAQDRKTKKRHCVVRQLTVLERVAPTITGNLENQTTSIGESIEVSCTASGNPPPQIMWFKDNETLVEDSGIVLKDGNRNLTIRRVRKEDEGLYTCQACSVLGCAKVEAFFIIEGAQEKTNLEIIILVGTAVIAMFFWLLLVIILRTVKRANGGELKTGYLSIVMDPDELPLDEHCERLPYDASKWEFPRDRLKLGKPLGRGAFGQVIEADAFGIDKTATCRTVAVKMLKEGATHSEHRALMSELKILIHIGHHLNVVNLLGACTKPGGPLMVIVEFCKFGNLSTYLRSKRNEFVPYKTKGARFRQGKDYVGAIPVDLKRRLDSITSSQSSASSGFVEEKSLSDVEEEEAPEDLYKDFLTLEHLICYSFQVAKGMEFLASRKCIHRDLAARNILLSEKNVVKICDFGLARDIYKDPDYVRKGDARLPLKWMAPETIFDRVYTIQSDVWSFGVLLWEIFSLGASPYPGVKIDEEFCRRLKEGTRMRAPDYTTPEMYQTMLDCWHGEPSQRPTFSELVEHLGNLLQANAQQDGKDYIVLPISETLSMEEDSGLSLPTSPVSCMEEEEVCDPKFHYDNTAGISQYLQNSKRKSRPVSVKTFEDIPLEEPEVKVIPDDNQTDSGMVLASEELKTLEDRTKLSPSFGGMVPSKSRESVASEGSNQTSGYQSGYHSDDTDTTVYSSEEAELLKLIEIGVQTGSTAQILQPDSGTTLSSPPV
[3] abbreviates: po, 0.5% NaCMC and 0.5% Tween 80 in water.
Setting [4] is: po, vehicle 0.5% NaCMC and 0.5% Tween 80 in water.

The term bioavailability denotes the share of a dose that reaches the circulation, judged against a reference dose that is usually intravenous. As usually defined, the AUC(0-inf) is total exposure, with the tail of the curve extrapolated. For the compound `CNC(=O)c1cc(Oc2ccc(NC(=O)Nc3ccc(Cl)c(C(F)(F)F)c3)c(F)c2)ccn1` [Example 1, 4{4-[3-(4-chloro-3-trifluoromethylphenyl)-ureido]-3-fluorophenoxy}-pyridine-2-carboxylic acid methylamide], in series [1], the “solubility of the active in this medium” value amounted to 2.3 mg/900 mL. For the same compound, the “inhibition of raf kinase” value in the series on raf is on record as “potent inhibitor”. For the same compound, the bioavailability in series [2] (oral, 0.5% tylose in water) came out at 9.9%; in series [2] (setting [3]), 13%; in series [2] (po, 0.5% tylose in water) it was 10%. Besides, the AUC(0-inf) in series [2] (setting [4]) worked out at 21800 ng·h/mL; in series [2] (po, vehicle 0.5% tylose in water) it was 17000 ng·h/mL. The “inhibition of PDGFR kinase” value in the series on PDGFR was “potent inhibitor”. Moreover, the “inhibition of p38 kinase” value in the series on p38 is listed as “potent inhibitor”. The “inhibition of VEGFR-2 kinase” value against VEGFR-2 is “potent inhibitor”.

`CNC(=O)c1cc(Oc2ccc(NC(=O)Nc3ccc(Cl)c(C(F)(F)F)c3)c(F)c2)ccn1.CS(=O)(=O)O` [Example 3, 4{4-[3-(4-chloro-3-trifluoromethylphenyl)-ureido]-3-fluorophenoxy}-pyridine-2-carboxylic acid methylamide mesylate] had a bioavailability in series [2] (setting [3]) of 10%. The compound also displayed an AUC(0-inf) in series [2] (setting [4]) of 16800 ng·h/mL.

`CNC(=O)c1cc(Oc2ccc(NC(=O)Nc3ccc(Cl)c(C(F)(F)F)c3)c(F)c2)ccn1.Cl` [Example 2, 4{4-[3-(4-chloro-3-trifluoromethylphenyl)-ureido]-3-fluorophenoxy}-pyridine-2-carboxylic acid methylamide hydrochloride] had a bioavailability in series [2] (setting [3]) of 7%. Further, the AUC(0-inf) in series [2] (setting [4]) came out at 12100 ng·h/mL.

As for `CNC(=O)c1cc(Oc2ccc(NC(=O)Nc3ccc(Cl)c(C(F)(F)F)c3)c(F)c2)ccn1.O=S(=O)(O)c1ccccc1` [Example 4, 4{4-[3-(4-chloro-3-trifluoromethylphenyl)-ureido]-3-fluorophenoxy}-pyridine-2-carboxylic acid methylamide phenylsulfonate], the bioavailability in series [2] (setting [3]) came to 10%. In series [2] (setting [4]), the AUC(0-inf) came out at 15800 ng·h/mL.
